# Test results: paper PMC5037430 (Scientific Reports, 2016)
# Where two headings read alike, the source gives them in different places.
# Molecular target: T1, glycolate oxidase (GO); hydroxyacid oxidase 1 (HAO1) (Homo sapiens, UniProt Q9UJM8)
# T1 construct: recombinant full-length human HAO1
# T1 sequence (Q9UJM8 1-370): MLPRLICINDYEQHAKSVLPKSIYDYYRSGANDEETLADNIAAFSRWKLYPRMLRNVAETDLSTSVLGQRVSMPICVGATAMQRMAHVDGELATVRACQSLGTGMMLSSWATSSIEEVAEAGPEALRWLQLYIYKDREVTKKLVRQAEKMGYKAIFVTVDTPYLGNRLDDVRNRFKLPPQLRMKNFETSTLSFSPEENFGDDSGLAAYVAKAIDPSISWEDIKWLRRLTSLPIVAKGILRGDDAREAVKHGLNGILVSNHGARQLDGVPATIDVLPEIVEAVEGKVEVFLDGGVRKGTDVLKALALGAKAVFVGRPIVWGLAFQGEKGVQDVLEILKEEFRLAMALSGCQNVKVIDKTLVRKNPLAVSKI
# Assay: hydrogen peroxide-Amplex red GO enzymatic assay; partial inhibition, less than […] at […]
# Type: biochemical
IC50 (read-out: IC50),SMILES,IC50
> 100 µM,CC[C@H](NC(=O)c1c(C)c(-c2ccccc2)nc2ccccc12)c1ccccc1 [SB 222200],
,CCCc1nc2c(C)cc(-c3nc4ccccc4n3C)cc2n1Cc1ccc(-c2ccccc2C(=O)O)cc1 [Telmisartan],> 100 µM
